Reference: the supplement of paper PMC11061612

Experiments:
Carboplatin = compound: C1CC(C1)(C(=O)[O-])C(=O)[O-].N.N.[Pt+2] [Carboplatin]; details: max 10 µM
Summary of the method: (§1)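 Cancer cell lines were dosed for 72 hours (final DMSO typically 0.2%) after 24 hours at 37°C and 5% CO2 in 1536-well plates containing 7.5 μl DMEM/F12 or RPMI with 10% FBS. Viability came from CellTiter-Glo 2.0 luminescence, scaled between blank-well and DMSO-well means, and dose responses were fitted to a two-parameter logistic curve with a non-linear mixed effects model. The single-agent IC50 was obtained from this fit.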

AZD5363 = compound: C1CN(CCC1(C(=O)N[C@@H](CCO)C2=CC=C(C=C2)Cl)N)C3=NC=NC4=C3C=CN4 [AZD5363]; details: max 10 µM
Summary of the method: as §1

AZD1775 = compound: C=CCn1c(=O)c2cnc(Nc3ccc(N4CCN(C)CC4)cc3)nc2n1-c1cccc(C(C)(C)O)n1 [AZD1775]; details: max 3 µM
Summary of the method: as §1

Trametinib = compound: CC(=O)Nc1cccc(-n2c(=O)n(C3CC3)c(=O)c3c(Nc4ccc(I)cc4F)n(C)c(=O)c(C)c32)c1 [Trametinib]; details: max 1 µM
Summary of the method: as §1

Paclitaxel = compound: CC(=O)O[C@H]1C(=O)[C@@]2(C)[C@H]([C@H](OC(=O)c3ccccc3)[C@]3(O)C[C@H](OC(=O)[C@H](O)[C@@H](NC(=O)c4ccccc4)c4ccccc4)C(C)=C1C3(C)C)[C@]1(OC(C)=O)CO[C@@H]1C[C@@H]2O [Paclitaxel]; details: max 3 µM
Summary of the method: as §1

Palbociclib = compound: CC(=O)c1c(C)c2cnc(Nc3ccc(N4CCNCC4)cn3)nc2n(C2CCCC2)c1=O [Palbociclib]; details: max 10 µM
Summary of the method: as §1

AZD1390 = compound: CC(C)n1c(=O)n(C)c2cnc3cc(F)c(-c4ccc(OCCCN5CCCCC5)nc4)cc3c21 [AZD1390]; details: max 0.3 µM
Summary of the method: as §1

Venetoclax = compound: CC1(C)CCC(CN2CCN(c3ccc(C(=O)NS(=O)(=O)c4ccc(NCC5CCOCC5)c([N+](=O)[O-])c4)c(Oc4cnc5[nH]ccc5c4)c3)CC2)=C(c2ccc(Cl)cc2)C1 [Venetoclax]; details: max 1 µM
Summary of the method: as §1

Dasatinib = compound: CC1=C(C(=CC=C1)Cl)NC(=O)C2=CN=C(S2)NC3=CC(=NC(=N3)C)N4CCN(CC4)CCO [Dasatinib]; details: max 2 µM
Summary of the method: as §1

SG3199 = compound: CC1=CN2[C@@H](C1)C=NC3=CC(=C(C=C3C2=O)OC)OCCCCCOC4=C(C=C5C(=C4)N=C[C@@H]6CC(=CN6C5=O)C)OC [SG3199]; details: max 0.001 µM
Summary of the method: as §1

AZD2811 = compound: CCN(CCO)CCCOc1ccc2c(Nc3cc(CC(=O)Nc4cccc(F)c4)[nH]n3)ncnc2c1 [AZD2811]; details: max 1 µM
Summary of the method: as §1

SN-38 = compound: CCc1c2c(nc3ccc(O)cc13)-c1cc3c(c(=O)n1C2)COC(=O)[C@]3(O)CC [SN-38]; details: max 0.3 µM
Summary of the method: as §1

AZD0156 = compound: CN(C)CCCOc1ccc(-c2ccc3ncc4c(c3c2)n(C2CCOCC2)c(=O)n4C)cn1 [AZD0156]; details: max 3 µM
Summary of the method: as §1

AZD4320 = compound: CN(CC[C@H](CSC1=CC=CC=C1)NC2=C(C=C(C=C2)S(=O)(=O)NC(=O)C3=CC=C(C=C3)N4CCC(CC4)[C@H](C5=CC=CC=C5C6=CC=C(C=C6)Cl)O)S(=O)(=O)C(F)(F)F)CCO [AZD4320]; details: max 1 µM
Summary of the method: as §1

Alisertib = compound: COc1cc(Nc2ncc3c(n2)-c2ccc(Cl)cc2C(c2c(F)cccc2OC)=NC3)ccc1C(=O)O [Alisertib]; details: max 10 µM
Summary of the method: as §1

Etoposide = compound: COc1cc([C@@H]2c3cc4c(cc3[C@@H](O[C@@H]3O[C@@H]5CO[C@@H](C)O[C@H]5[C@H](O)[C@H]3O)[C@H]3COC(=O)[C@H]23)OCO4)cc(OC)c1O [Etoposide]; details: max 10 µM
Summary of the method: as §1

Gefitinib = compound: COc1cc2ncnc(Nc3ccc(F)c(Cl)c3)c2cc1OCCCN1CCOCC1 [Gefitinib]; details: max 10 µM
Summary of the method: as §1

Prexasertib = compound: COc1cccc(OCCCN)c1-c1cc(Nc2cnc(C#N)cn2)n[nH]1 [Prexasertib]; details: max 1 µM
Summary of the method: as §1

Doxorubicin = compound: COc1cccc2c1C(=O)c1c(O)c3c(c(O)c1C2=O)C[C@@](O)(C(=O)CO)C[C@@H]3O[C@H]1C[C@H](N)[C@H](O)[C@H](C)O1 [Doxorubicin]; details: max 1 µM
Summary of the method: as §1

AZD5153 = compound: COc1nnc2ccc(N3CCC(c4ccc(OCCN5CCN(C)C(=O)[C@H]5C)cc4)CC3)nn12 [AZD5153]; details: max 1 µM
Summary of the method: as §1

Lapatinib = compound: CS(=O)(=O)CCNCc1ccc(-c2ccc3ncnc(Nc4ccc(OCc5cccc(F)c5)c(Cl)c4)c3c2)o1 [Lapatinib]; details: max 10 µM
Summary of the method: as §1

AZD8186 = compound: C[C@@H](Nc1cc(F)cc(F)c1)c1cc(C(=O)N(C)C)cc2c(=O)cc(N3CCOCC3)oc12 [AZD8186]; details: max 10 µM
Summary of the method: as §1

Crizotinib = compound: C[C@@H](Oc1cc(-c2cnn(C3CCNCC3)c2)cnc1N)c1c(Cl)ccc(F)c1Cl [Crizotinib]; details: max 10 µM
Summary of the method: as §1

Savolitinib = compound: C[C@@H](c1ccc2nccn2c1)n1nnc2ncc(-c3cnn(C)c3)nc21 [Savolitinib]; details: max 1 µM
Summary of the method: as §1

AZD6738 = compound: C[C@@H]1COCCN1C2=NC(=NC(=C2)C3(CC3)[S@](=N)(=O)C)C4=C5C=CNC5=NC=C4 [AZD6738]; details: max 10 µM
Summary of the method: as §1

AZD5991 = compound: Cc1c2c(nn1C)CSCc1cc(n(C)n1)CSc1cc(c3ccccc3c1)OCCCc1c(C(=O)O)n(C)c3c-2c(Cl)ccc13 [AZD5991]; details: max 1 µM
Summary of the method: as §1

AZD7648 = compound: Cc1cc2ncnn2cc1Nc1ncc2c(n1)n(C1CCOCC1)c(=O)n2C [AZD7648]; details: max 10 µM
Summary of the method: as §1

Taselisib = compound: Cc1nc(-c2cn3c(n2)-c2ccc(-c4cnn(C(C)(C)C(N)=O)c4)cc2OCC3)n(C(C)C)n1 [Taselisib]; details: max 10 µM
Summary of the method: as §1

Selumetinib = compound: Cn1cnc2c(F)c(Nc3ccc(Br)cc3Cl)c(C(=O)NOCCO)cc21 [Selumetinib]; details: max 10 µM
Summary of the method: as §1

SRA737 = compound: N#Cc1cnc(Nc2cc(NC[C@H]3CNCCO3)c(C(F)(F)F)cn2)cn1 [SRA737]; details: max 10 µM
Summary of the method: as §1

MK-2206 = compound: NC1(c2ccc(-c3nc4ccn5c(=O)[nH]nc5c4cc3-c3ccccc3)cc2)CCC1 [MK-2206]; details: max 10 µM
Summary of the method: as §1

Gemcitabine = compound: Nc1ccn([C@@H]2O[C@H](CO)[C@@H](O)C2(F)F)c(=O)n1 [Gemcitabine]; details: max 0.3 µM
Summary of the method: as §1

[1] = compound: O=C(Nc1ccc2[nH]nc(-c3ccncc3)c2c1)[C@@H]1CCN(CC(=O)N2CCN(c3ccc(-c4ncccn4)cc3)CC2)C1; details: max 5 µM
Summary of the method: as §1

Olaparib = compound: O=C(c1cc(Cc2n[nH]c(=O)c3ccccc23)ccc1F)N1CCN(C(=O)C2CC2)CC1 [Olaparib]; details: max 10 µM
Summary of the method: as §1

5-Fluorouracil = compound: O=c1[nH]cc(F)c(=O)[nH]1 [5-Fluorouracil]; details: max 20 µM
Summary of the method: as §1

Row | Cell Line | IC50, cell viability 72 h (Carboplatin) [nM] | IC50, cell viability 72 h (AZD5363) [nM] | IC50, cell viability 72 h (AZD1775) [nM] | IC50, cell viability 72 h (Trametinib) [nM] | IC50, cell viability 72 h (Paclitaxel) [nM] | IC50, cell viability 72 h (Palbociclib) [nM] | IC50, cell viability 72 h (AZD1390) [nM] | IC50, cell viability 72 h (Venetoclax) [nM] | IC50, cell viability 72 h (Dasatinib) [nM] | IC50, cell viability 72 h (SG3199) [nM] | IC50, cell viability 72 h (AZD2811) [nM] | IC50, cell viability 72 h (SN-38) [nM] | IC50, cell viability 72 h (AZD0156) [nM] | IC50, cell viability 72 h (AZD4320) [nM] | IC50, cell viability 72 h (Alisertib) [nM] | IC50, cell viability 72 h (Etoposide) [nM] | IC50, cell viability 72 h (Gefitinib) [nM] | IC50, cell viability 72 h (Prexasertib) [nM] | IC50, cell viability 72 h (Doxorubicin) [nM] | IC50, cell viability 72 h (AZD5153) [nM] | IC50, cell viability 72 h (Lapatinib) [nM] | IC50, cell viability 72 h (AZD8186) [nM] | IC50, cell viability 72 h (Crizotinib) [nM] | IC50, cell viability 72 h (Savolitinib) [nM] | IC50, cell viability 72 h (AZD6738) [nM] | IC50, cell viability 72 h (AZD5991) [nM] | IC50, cell viability 72 h (AZD7648) [nM] | IC50, cell viability 72 h (Taselisib) [nM] | IC50, cell viability 72 h (Selumetinib) [nM] | IC50, cell viability 72 h (SRA737) [nM] | IC50, cell viability 72 h (MK-2206) [nM] | IC50, cell viability 72 h (Gemcitabine) [nM] | IC50, cell viability 72 h [1] [nM] | IC50, cell viability 72 h (Olaparib) [nM] | IC50, cell viability 72 h (5-Fluorouracil) [nM]
1 | NCI-H64 (Small Cell Lung Carcinoma) | > 10000 | > 10000 | 236 | > 1000 | 527 | > 10000 | > 300 | > 1000 | > 2000 | > 1 | 597 | > 300 | > 3000 | 230 | 4900 | > 10000 | > 10000 | 19.6 | > 1000 | > 1000 | > 10000 | > 10000 | 5170 | > 1000 | 3170 | > 1000 | > 10000 | > 10000 | > 10000 | 3840 | > 10000 | > 300 | > 5000 | > 10000 | > 20000
2 | NCI-H1581 (Non-Small Cell Lung Carcinoma) | > 10000 | > 10000 | 1770 | 545 | 3.82 | > 10000 | > 300 | > 1000 | > 2000 | > 1 | > 1000 | 79.5 | > 3000 | > 1000 | 2060 | 5320 | > 10000 | > 1000 | > 1000 | > 1000 | > 10000 | > 10000 | > 10000 | > 1000 | > 10000 | 163 | > 10000 | > 10000 | > 10000 | > 10000 | > 10000 | 195 | 3230 | > 10000 | > 20000
3 | NCI-H1666 (Lung Adenocarcinoma) | > 10000 | > 10000 | > 3000 | 103 | 794 | > 10000 | > 300 | > 1000 | > 2000 | > 1 | > 1000 | 238 | > 3000 | > 1000 | > 10000 | > 10000 | > 10000 | > 1000 | > 1000 | > 1000 | > 10000 | > 10000 | > 10000 | > 1000 | > 10000 | > 1000 | > 10000 | 3200 | 7170 | > 10000 | > 10000 | > 300 | > 5000 | > 10000 | > 20000
4 | NCI-H2066 (Squamous Cell Lung Carcinoma) | > 10000 | > 10000 | > 3000 | > 1000 | 320 | > 10000 | > 300 | > 1000 | > 2000 | > 1 | > 1000 | > 300 | > 3000 | > 1000 | > 10000 | > 10000 | > 10000 | > 1000 | > 1000 | > 1000 | > 10000 | > 10000 | > 10000 | > 1000 | > 10000 | > 1000 | > 10000 | 3920 | > 10000 | > 10000 | > 10000 | > 300 | > 5000 | > 10000 | > 20000
5 | NY (Osteosarcoma) | > 10000 | > 10000 | 538 | > 1000 | 7.26 | > 10000 | > 300 | > 1000 | > 2000 | > 1 | > 1000 | 16.1 | > 3000 | > 1000 | > 10000 | > 10000 | > 10000 | 115 | > 1000 | > 1000 | > 10000 | > 10000 | > 10000 | > 1000 | > 10000 | > 1000 | > 10000 | > 10000 | > 10000 | 3440 | > 10000 | 41 | > 5000 | > 10000 | > 20000
